Bridge positions count the residues as written; N and C are the ends. Peptide text beside a SMILES is read from it.
Key:
[1] = target: NbALFA; assay: SPR measurements of NbALFA binding (Biacore T200, multi cycle kinetics, 1:1 binding model); conditions: 25° C., HBS-EP+ buffer, biotinylated NbALFA captured
Method: Affinity measurements were performed using a Biacore T200 (GE Healthcare, Biacore T200 control Software 3.2). […] A freshly docked Biotin CAPture chip was rehydrated overnight in the instrument (standby mode). […] The immobilization of the Nanobody was done for 180 s at 10 μL/min on FC2 followed by quenching of unbound streptavidin by 0.1 mM biocytin for 60 s and 30 μL/min on both flow cells. […] After each cycle, the surface was regenerated for 120 s with 10 μL/min using regeneration solution. All measurements were performed at 25° C. using HBS-EP+ buffer (Cytiva Europe, Cat. no BR100669). The control responses from FC1 were subtracted by the sample measurement in FC2 (FC2−FC1) followed by subtraction of the 0 nM blank injection. Resulting binding curves of this multi cycle kinetic experiment were fitted using the Biacore T200 Evaluation Software 3.2 and a 1:1 binding model.

[2] = Plasma stability, human plasma; conditions: for remaining at 24 h, 10 µM / remaining at 2 h, 10 µM / remaining at 6 h, 10 µM / half-life: human; for remaining at 24 h, 10 µM: Li-heparin plasma; for remaining at 2 h, 10 µM / remaining at 6 h, 10 µM: human Li-heparin plasma; for half-life: plasma
Method: (§1) Plasma stability measurements were performed by spiking 5 μl of a 1 mM compound stock solution in DMSO into 495 μl of human or mouse Li-heparin plasma (Innovative Research, Cat. No, IPLALIH5OML (human) and IMS-BC-N (Balb C mouse). The spiked plasma was distributed in 50 μl aliquots into capped PCR tubes for incubation at 37° C. At each time point (0, 2, 6, 24 hours*) 3*aliquots were withdrawn from the incubator. Enzymatic reactions were quenched directly after withdrawal by adding 100 μl of acetonitrile/formic acid=99/1 (v/v). Quenched samples were stored at ambient temperature until the end of the incubation period (24 hrs*). After centrifugation, the supernatant was transferred into fresh vials and analyzed by LC-MS/MS in ESI positive mode (Waters ACQUITY UPLC I-Class System (SM-FTN) with Xevo TQD triple quadrupole mass spectrometer with control software Waters MassLynx). […] Values below the limit of quantification (0.1 μM) and outliers of triplicate results were excluded from further calculations. An exponential regression curve was fitted onto the concentration results. Half-life times were calculated from the slope of the regression curve (t1/2=ln(2)/slope).
(§2) For some samples, as indicated below, the incubation time was 6 hours. The 24 hour data was measured in triplicates whereas the 6 hour data was measured in duplicates.

[3] = system: anti-ALFA VHH; assay: binding affinity to the anti-ALFA VHH (log(agonist) vs. response, variable slope); conditions: for LogEC50: best-fit values, log(agonist) vs. response, variable slope; for EC50: binding to anti-ALFA VHH
[4] = Plasma stability, mouse plasma; conditions: for remaining at 2 h, 10 µM / remaining at 6 h, 10 µM / remaining at 24 h, 10 µM: Balb C, Li-heparin plasma; for remaining at 2 h, 10 µM / remaining at 6 h, 10 µM / remaining at 24 h, 10 µM / half-life: mouse; for Conc. (% of T0) / Mean (compound concentration) / Tube 2 (compound concentration) / Tube 3 (compound concentration) / Tube 1 (compound concentration) / half-life: mouse plasma, 37° C.; for half-life: plasma
Method: as §1, §2

[5] = human plasma, 37° C., timepoint 0 h
[6] = human plasma, 37° C., timepoint 0 h, calibration range 0.1 to 10 μM
[7] = human plasma, 37° C., timepoint 2 h
[8] = human plasma, 37° C., timepoint 6 h
[9] = human plasma, 37° C., timepoint 24 h
[10] = Half-life time, human plasma, 37° C., incubation 24 h (triplicates) or 6 h (duplicates)
[11] = timepoint 0 h, calibration range 0.1 to 10 μM
[12] = Half-life time, incubation 24 h (triplicates) or 6 h (duplicates)

CC(=O)N[C@@H](CO)C(=O)N[C@@H](CCCNC(=N)N)C(=O)N[C@@H](CC(C)C)C(=O)N[C@@H](CCC(=O)O)C(=O)N[C@H]1CC(=O)NCCCC[C@@H](C(=O)N[C@@H](CCCNC(=N)N)C(=O)N[C@@H](CC(C)C)C(=O)N[C@H](C(=O)N[C@@H](CCC(=O)O)C(N)=O)[C@@H](C)O)NC(=O)[C@H](CCCNC(=N)N)NC(=O)[C@H](CC(C)C)NC(=O)[C@H](CCC(=O)O)NC1=O [SD15196, Ac-Ser-Arg-Leu-Glu-(cyclo5)Asp-Glu-Leu-Arg-(cyclo9)Lys-Arg-Leu-Thr-Glu-NH2] (Ac-SRLEDELRKRLTE-NH2; lactam 5-9)
Kd [1]: 0.436 nM
ka [1]: 1.81e+07 M⁻¹ s⁻¹
kd [1]: 0.0079 s⁻¹
Conc. (% of T0) [2, 5]: 100.0 % of T0
Mean (compound concentration) [2, 5]: 2.42
Tube 2 (compound concentration) [2, 5]: 2.424
Tube 3 (compound concentration) [2, 5]: 2.518
Tube 1 (compound concentration) [2, 6]: 2.314
Mean (compound concentration) [2, 7]: 2.21
Tube 1 (compound concentration) [2, 7]: 2.188
Tube 2 (compound concentration) [2, 7]: 2.234
Tube 3 (compound concentration) [2, 7]: 2.212
Mean (compound concentration) [2, 8]: 1.73
Tube 1 (compound concentration) [2, 8]: 1.843
Tube 2 (compound concentration) [2, 8]: 1.803
Tube 3 (compound concentration) [2, 8]: 1.545
Mean (compound concentration) [2, 9]: 0.77
Tube 1 (compound concentration) [2, 9]: 0.844
Tube 2 (compound concentration) [2, 9]: 0.761
Tube 3 (compound concentration) [2, 9]: 0.694
remaining at 24 h, 10 µM ([2]; Conc. (% of T0), human plasma, 37° C., timepoint 24 h): 31.7%
remaining at 2 h, 10 µM ([2]; Conc. (% of T0), human plasma, 37° C., timepoint 2 h): 91.4%
remaining at 6 h, 10 µM ([2]; Conc. (% of T0), human plasma, 37° C., timepoint 6 h): 71.5%
half-life [2, 10]: 14.5 h
LogEC50 [3]: 2.576
EC50 [3]: 377 nM
remaining at 2 h, 10 µM [4]: 94.3%
remaining at 6 h, 10 µM [4]: 80.5%
remaining at 24 h, 10 µM [4]: 52.5%
Conc. (% of T0) ([4]; timepoint 0 h): 100.0 % of T0
Mean (compound concentration) ([4]; timepoint 0 h): 2.42
Tube 2 (compound concentration) ([4]; timepoint 0 h): 2.424
Tube 3 (compound concentration) ([4]; timepoint 0 h): 2.497
Tube 1 (compound concentration) [4, 11]: 2.336
Mean (compound concentration) ([4]; timepoint 2 h): 2.28
Tube 1 (compound concentration) ([4]; timepoint 2 h): 2.277
Tube 2 (compound concentration) ([4]; timepoint 2 h): 2.329
Tube 3 (compound concentration) ([4]; timepoint 2 h): 2.237
Mean (compound concentration) ([4]; timepoint 6 h): 1.95
Tube 1 (compound concentration) ([4]; timepoint 6 h): 1.96
Tube 2 (compound concentration) ([4]; timepoint 6 h): 2.008
Tube 3 (compound concentration) ([4]; timepoint 6 h): 1.874
Mean (compound concentration) ([4]; timepoint 24 h): 1.27
Tube 1 (compound concentration) ([4]; timepoint 24 h): 1.334
Tube 2 (compound concentration) ([4]; timepoint 24 h): 1.273
Tube 3 (compound concentration) ([4]; timepoint 24 h): 1.201
half-life ([4]; Flag (half-life, assay exceeded)): > 24 h
half-life [4, 12]: 26.2 h

CC(=O)N[C@@H](CO)C(=O)N[C@@H](CCCNC(=N)N)C(=O)N[C@@H](CC(C)C)C(=O)N[C@@H](CCC(=O)O)C(=O)N[C@@H](CCC(=O)O)C(=O)N[C@@H](CCC(=O)O)C(=O)N[C@@H](CC(C)C)C(=O)N[C@@H](CCCNC(=N)N)C(=O)N[C@H]1CCCCNC(=O)CC[C@@H](C(N)=O)NC(=O)[C@H]([C@@H](C)O)NC(=O)[C@H](CC(C)C)NC(=O)[C@H](CCCNC(=N)N)NC1=O [SD15193, Ac-Ser-Arg-Leu-Glu-Glu-Glu-Leu-Arg-(cyclo9)Lys-Arg-Leu-Thr-(cyclo13)Glu-NH2] (Ac-SRLEEELRKRLTE-NH2; lactam 9-13)
Kd [1]: 0.0556 nM
ka [1]: 1.95e+07 M⁻¹ s⁻¹
kd [1]: 0.00109 s⁻¹
Conc. (% of T0) [2, 5]: 100.0 % of T0
Mean (compound concentration) [2, 5]: 2.81
Tube 2 (compound concentration) [2, 5]: 2.845
Tube 3 (compound concentration) [2, 5]: 2.795
Tube 1 (compound concentration) [2, 6]: 2.799
Mean (compound concentration) [2, 7]: 2.71
Tube 1 (compound concentration) [2, 7]: 2.769
Tube 2 (compound concentration) [2, 7]: 2.647
Tube 3 (compound concentration) [2, 7]: 2.717
Mean (compound concentration) [2, 8]: 2.66
Tube 1 (compound concentration) [2, 8]: 2.774
Tube 2 (compound concentration) [2, 8]: 2.678
Tube 3 (compound concentration) [2, 8]: 2.527
Mean (compound concentration) [2, 9]: 2.09
Tube 1 (compound concentration) [2, 9]: 2.387
Tube 2 (compound concentration) [2, 9]: 1.983
Tube 3 (compound concentration) [2, 9]: 1.888
remaining at 24 h, 10 µM [2]: 74.2%
remaining at 2 h, 10 µM [2]: 96.4%
remaining at 6 h, 10 µM [2]: 94.5%
half-life ([2]; Flag (half-life, assay exceeded), human plasma, 37° C.): > 24 h
half-life [2, 10]: 56.1 h
LogEC50 [3]: 0.7818
EC50 [3]: 6.05 nM
remaining at 2 h, 10 µM [4]: 87.5%
remaining at 6 h, 10 µM [4]: 72.7%
remaining at 24 h, 10 µM [4]: 39.4%
Conc. (% of T0) ([4]; timepoint 0 h): 100.0 % of T0
Mean (compound concentration) ([4]; timepoint 0 h): 3.29
Tube 2 (compound concentration) ([4]; timepoint 0 h): 3.236
Tube 3 (compound concentration) ([4]; timepoint 0 h): 3.311
Tube 1 (compound concentration) [4, 11]: 3.315
Mean (compound concentration) ([4]; timepoint 2 h): 2.88
Tube 1 (compound concentration) ([4]; timepoint 2 h): 2.864
Tube 2 (compound concentration) ([4]; timepoint 2 h): 2.972
Tube 3 (compound concentration) ([4]; timepoint 2 h): 2.789
Mean (compound concentration) ([4]; timepoint 6 h): 2.39
Tube 1 (compound concentration) ([4]; timepoint 6 h): 2.383
Tube 2 (compound concentration) ([4]; timepoint 6 h): 2.443
Tube 3 (compound concentration) ([4]; timepoint 6 h): 2.346
Mean (compound concentration) ([4]; timepoint 24 h): 1.30
Tube 1 (compound concentration) ([4]; timepoint 24 h): 1.253
Tube 2 (compound concentration) ([4]; timepoint 24 h): 1.397
Tube 3 (compound concentration) ([4]; timepoint 24 h): 1.236
half-life [4, 12]: 18.5 h
